Target: T1, linalool dehydratase (EC 4.2.1.127) (Castellaniella defragrans, UniProt E1XUJ2)
T1 construct: His tag; made in house; host or cells: E. coli BL21 (pARZ4 vector)
Assay: Enzyme activity of linalool dehydratase using 3-buten-2-ol as substrate (headspace GC-MS for butadiene)
Type: biochemical
Conditions: 11 mM 3-buten-2-ol, 25° C., purified his-tagged enzyme, butadiene in headspace by GC-MS
From the text: The his-tagged linalool dehydratase (EC 4.2.1.127) from Castellaniella defragrans was cloned into a pARZ4 vector and transformed into E. coli BL21. The resulting strain was cultivated and induced using […] (isopropylthio-β-galactoside) in a shake flask culture containing Luria Broth media and kanamycin selection pressure.
The cells from each of the induced shake flask cultures were harvested and pelleted by centrifugation. The cell pellet was resuspended and the cells were lysed. The cell debris was separated from the supernatant via centrifugation and filtered using a 0.2 μm filter. The enzyme was purified from the filtered supernatant using Ni-affinity chromatography and concentrated and buffer exchanged using a Vivaspin 15R Centrifugal Concentrator and Hi-trap Desalting column into 80 mM Tris buffer (pH=9).
Non-native enzyme activity assays were undertaken in a buffer containing 11 mM of 3-buten-2-ol at 25° C. The activity assays were undertaken in 2 mL septum-sealed vials, thereby allowing butadiene accumulation in the headspace. The reaction was initiated by adding 1 mL of purified enzyme to the assay buffer containing the substrate.
The headspace was sampled for butadiene analysis by GC-MS (gas chromatography-mass spectrometry). […] Also, the ion peak areas were above the limit of quantitation for the GC-MS.

T1 sequence (E1XUJ2 27-397): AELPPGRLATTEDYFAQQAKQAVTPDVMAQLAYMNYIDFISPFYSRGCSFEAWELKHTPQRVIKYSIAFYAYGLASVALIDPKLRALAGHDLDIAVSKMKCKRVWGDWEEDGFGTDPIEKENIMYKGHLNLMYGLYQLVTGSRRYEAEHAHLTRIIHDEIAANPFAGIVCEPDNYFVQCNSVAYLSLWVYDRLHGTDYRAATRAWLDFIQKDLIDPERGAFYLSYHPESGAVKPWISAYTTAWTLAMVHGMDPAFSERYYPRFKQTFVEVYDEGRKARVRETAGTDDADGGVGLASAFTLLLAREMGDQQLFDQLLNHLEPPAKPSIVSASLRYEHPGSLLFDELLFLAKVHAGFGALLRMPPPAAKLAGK

In the case of `C=CC(C)O` (stereo not shown) [3-buten-2-ol], the “non-native enzyme activity: substrate acceptance, synthesis of butadiene” value is reported as “accepts 3-buten-2-ol as a substrate”.

From US10294496B2, “Methods for biosynthesizing 1,3 butadiene” (INVISTA North America S.á r.l., priority 2013, dated 2019)
